Test results as given in US12201679B2, “Epitope-targeted peptide immunostimulants” (priority 2019, dated 2025).
Where two headings read alike, the source gives them in different places. Bridge positions count the residues as written; N and C are the ends. Square brackets hold non-standard residues; d marks the D form. Triazole bridges read from a SMILES are 1,4-linked. Peptide text beside a SMILES is read from it. * marks the point of attachment. Biotin = O=C1N[C@H]2[C@H](CS[C@H]2CCCCC(=O)*)N1; PEG10 = NCCOCCOCCOCCOCCOCCOCCOCCOCCOCCOCCC(=O)O; Lys(N3) = [N-]=[N+]=NCCCC[C@H](N)C(=O)O; Phe(4-F) = N[C@@H](Cc1ccc(F)cc1)C(=O)O; Pra = C#CC[C@H](N)C(=O)O

What was measured:
[1] = Isocratic point, elution from C18 prep-scale column; type: physicochemical; conditions: elution from C18 column
Experimental: PCC compounds were purified on a Waters Autopurification system, which isolated compounds based on MS peaks corresponding to protonated [M+1H]^+ and [M+2H]^2+, and/or sodium adducts [M+Na]^+ and [M+2Na]^2+. The isocratic points of PCCs were determined based on the elution of the compound from a C18 prep-scale column. Synthetic epitopes were either purified on the Waters Autopurification System, or by semi-preparative HPLC and then using matrix-assisted laser desorption/ionization mass spectroscopy to identify fractions with the desired m/z ratio. The resulting peptides were lyophilized, the yield determined by mass difference or UV-visible absorbance, and resuspended at a concentration of up to 10 mM peptide in DMSO. Peptides were stored at −80° C. before thawing for each use.

[2] = target: full-length recombinant MrkA protein (Klebsiella pneumoniae, UniProt P12267); type: binding
full-length recombinant MrkA protein, sequence (P12267 23-202): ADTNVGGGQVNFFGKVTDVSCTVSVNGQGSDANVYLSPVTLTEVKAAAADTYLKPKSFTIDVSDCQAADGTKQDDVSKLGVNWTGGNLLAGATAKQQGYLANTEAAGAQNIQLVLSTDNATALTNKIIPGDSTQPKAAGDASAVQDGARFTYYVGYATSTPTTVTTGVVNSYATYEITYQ
Source text: HPraGly is present before X1 in each peptide and Az4 follows X5 in each peptide.

C[C@@H]1NC(=O)[C@H](C)NC(=O)[C@@H](NC(=O)CCOCCOCCOCCOCCOCCOCCOCCOCCOCCOCCNC(=O)CCCC[C@@H]2SC[C@@H]3NC(=O)N[C@@H]32)Cc2cn(nn2)CCCC[C@@H](C(N)=O)NC(=O)[C@H](Cc2ccccc2)NC(=O)[C@H](Cc2ccccc2)NC(=O)[C@H](Cc2ccccc2)NC1=O [compound 7] ({Biotin-PEG10}-[Pra]AAFFF[Lys(N3)]-NH2; triazole 1-7)
Isocratic point (%) [1]: 54.65% | Relative affinity (ratio of ELISA signal versus cy(LLFFF)) ([2]; ELISA 3, [MrkA] 50 nM): 0.15

CC(C)C[C@@H]1NC(=O)[C@@H](NC(=O)CCOCCOCCOCCOCCOCCOCCOCCOCCOCCOCCNC(=O)CCCC[C@@H]2SC[C@@H]3NC(=O)N[C@@H]32)CCCCn2cc(nn2)C[C@@H](C(N)=O)NC(=O)[C@H](C)NC(=O)[C@H](Cc2ccccc2)NC(=O)[C@H](Cc2ccccc2)NC(=O)[C@H](CC(C)C)NC1=O [compound 6] ({Biotin-PEG10}-[Lys(N3)]LLFFA[Pra]-NH2; triazole 1-7)
Isocratic point (%) [1]: 64.43% | Relative affinity (ratio of ELISA signal versus cy(LLFFF)) ([2]; ELISA 2, [MrkA] 25 nM): 0.04

CC(C)C[C@@H]1NC(=O)[C@@H](NC(=O)CCOCCOCCOCCOCCOCCOCCOCCOCCOCCOCCNC(=O)CCCC[C@@H]2SC[C@@H]3NC(=O)N[C@@H]32)Cc2cn(nn2)CCCC[C@@H](C(N)=O)NC(=O)[C@H](Cc2ccccc2)NC(=O)[C@H](CC(C)C)NC1=O [compound 22] ({Biotin-PEG10}-[Pra]LLF[Lys(N3)]-NH2; triazole 1-5)
Isocratic point (%) [1]: 56.45% | Relative affinity (ratio of ELISA signal versus cy(LLFFF)) ([2]; ELISA 6, [MrkA] 25 nM): 0.09

CC(C)C[C@@H]1NC(=O)[C@@H](NC(=O)CCOCCOCCOCCOCCOCCOCCOCCOCCOCCOCCNC(=O)CCCC[C@@H]2SC[C@@H]3NC(=O)N[C@@H]32)Cc2cn(nn2)CCCC[C@@H](C(N)=O)NC(=O)[C@H](Cc2ccccc2)NC(=O)[C@H](C)NC(=O)[C@H](Cc2ccccc2)NC(=O)[C@H](CC(C)C)NC1=O [compound 5] ({Biotin-PEG10}-[Pra]LLFAF[Lys(N3)]-NH2; triazole 1-7)
Isocratic point (%) [1]: 66.00% | Relative affinity (ratio of ELISA signal versus cy(LLFFF)) ([2]; ELISA 2, [MrkA] 25 nM): 0.10

CC(C)C[C@@H]1NC(=O)[C@@H](NC(=O)CCOCCOCCOCCOCCOCCOCCOCCOCCOCCOCCNC(=O)CCCC[C@@H]2SC[C@@H]3NC(=O)N[C@@H]32)Cc2cn(nn2)CCCC[C@@H](C(N)=O)NC(=O)[C@H](Cc2ccccc2)NC(=O)[C@H](Cc2ccccc2)NC(=O)[C@H](Cc2ccccc2)NC1=O [compound 8] ({Biotin-PEG10}-[Pra]LFFF[Lys(N3)]-NH2; triazole 1-6)
Isocratic point (%) [1]: 61.84% | Relative affinity (ratio of ELISA signal versus cy(LLFFF)) ([2]; ELISA 3, [MrkA] 50 nM): 0.46

CC(C)C[C@@H]1NC(=O)[C@H](CC(=O)O)NC(=O)[C@@H](NC(=O)CCOCCOCCOCCOCCOCCOCCOCCOCCOCCOCCNC(=O)CCCC[C@@H]2SC[C@@H]3NC(=O)N[C@@H]32)Cc2cn(nn2)CCCC[C@@H](C(N)=O)NC(=O)[C@H](Cc2ccccc2)NC(=O)[C@H](Cc2ccccc2)NC(=O)[C@H](Cc2ccccc2)NC1=O [compound 20] ({Biotin-PEG10}-[Pra]DLFFF[Lys(N3)]-NH2; triazole 1-7)
Isocratic point (%) [1]: 66.33% | Relative affinity (ratio of ELISA signal versus cy(LLFFF)) ([2]; ELISA 6, [MrkA] 25 nM): 0.21

CC(C)C[C@@H]1NC(=O)[C@@H](NC(=O)CCOCCOCCOCCOCCOCCOCCOCCOCCOCCOCCNC(=O)CCCC[C@@H]2SC[C@@H]3NC(=O)N[C@@H]32)Cc2cn(nn2)CCCC[C@@H](C(N)=O)NC(=O)[C@H](Cc2ccccc2)NC(=O)[C@H](Cc2ccccc2)NC(=O)[C@H](Cc2ccccc2)NC(=O)[C@H](C)NC1=O [compound 3] ({Biotin-PEG10}-[Pra]LAFFF[Lys(N3)]-NH2; triazole 1-7)
Isocratic point (%) [1]: 66.00% | Relative affinity (ratio of ELISA signal versus cy(LLFFF)) ([2]; ELISA 2, [MrkA] 25 nM): 0.26

CC(C)C[C@@H]1NC(=O)[C@H](CC(C)C)NC(=O)[C@@H](NC(=O)CCOCCOCCOCCOCCOCCOCCOCCOCCOCCOCCNC(=O)CCCC[C@@H]2SC[C@@H]3NC(=O)N[C@@H]32)Cc2cn(nn2)CCCC[C@@H](C(N)=O)NC(=O)[C@H](Cc2ccccc2)NC(=O)[C@H](Cc2ccccc2)NC(=O)[C@H](C)NC1=O [compound 4] ({Biotin-PEG10}-[Pra]LLAFF[Lys(N3)]-NH2; triazole 1-7)
Isocratic point (%) [1]: 70.97% | Relative affinity (ratio of ELISA signal versus cy(LLFFF)) ([2]; ELISA 2, [MrkA] 25 nM): 0.59

CC(C)C[C@@H]1NC(=O)[C@@H](NC(=O)CCOCCOCCOCCOCCOCCOCCOCCOCCOCCOCCNC(=O)[C@H](CCCNC(=N)N)NC(=O)[C@H](CCCNC(=N)N)NC(=O)[C@H](CCCNC(=N)N)NC(=O)[C@H](CCCNC(=N)N)NC(=O)[C@H](CCCNC(=N)N)NC(=O)[C@H](CCCNC(=N)N)NC(=O)CCOCCOCCOCCOCCOCCOCCOCCOCCOCCOCCNC(=O)CCCC[C@@H]2SC[C@@H]3NC(=O)N[C@@H]32)Cc2cn(nn2)CCCC[C@@H](C(N)=O)NC(=O)[C@H](Cc2ccccc2)NC(=O)[C@H](Cc2ccccc2)NC(=O)[C@H](Cc2ccccc2)NC(=O)[C@H](CC(C)C)NC1=O [compound 17] ({Biotin-PEG10}-RRRRRR[PEG10][Pra]LLFFF[Lys(N3)]-NH2; triazole 8-14)
Isocratic point (%) [1]: 39.82% | Relative affinity (ratio of ELISA signal versus cy(LLFFF)) ([2]; ELISA 5, [MrkA] 25 nM): 1.22

CC(C)C[C@@H]1NC(=O)[C@@H](NC(=O)CCOCCOCCOCCOCCOCCOCCOCCOCCOCCOCCNC(=O)[C@H](CCCNC(=N)N)NC(=O)[C@H](CCCNC(=N)N)NC(=O)[C@H](CCCNC(=N)N)NC(=O)[C@H](CCCNC(=N)N)NC(=O)[C@H](CCCNC(=N)N)NC(=O)[C@H](CCCNC(=N)N)NC(=O)[C@H](CCCNC(=N)N)NC(=O)[C@H](CCCNC(=N)N)NC(=O)[C@H](CCCNC(=N)N)NC(=O)CCOCCOCCOCCOCCOCCOCCOCCOCCOCCOCCNC(=O)CCCC[C@@H]2SC[C@@H]3NC(=O)N[C@@H]32)Cc2cn(nn2)CCCC[C@@H](C(N)=O)NC(=O)[C@H](Cc2ccccc2)NC(=O)[C@H](Cc2ccccc2)NC(=O)[C@H](Cc2ccccc2)NC(=O)[C@H](CC(C)C)NC1=O [compound 18]
Isocratic point (%) [1]: 37.03% | Relative affinity (ratio of ELISA signal versus cy(LLFFF)) ([2]; ELISA 5, [MrkA] 25 nM): 0.58

CC(C)C[C@@H]1NC(=O)[C@@H](NC(=O)CCOCCOCCOCCOCCOCCOCCOCCOCCOCCOCCNC(=O)CCCC[C@@H]2SC[C@@H]3NC(=O)N[C@@H]32)Cc2cn(nn2)CCCC[C@@H](C(N)=O)NC(=O)[C@H](Cc2ccccc2)NC(=O)[C@H](Cc2ccccc2)NC(=O)[C@H](Cc2ccccc2)NC(=O)[C@H](CC(C)C)NC1=O [Ref. compound] ({Biotin-PEG10}-[Pra]LLFFF[Lys(N3)]-NH2; triazole 1-7)
Isocratic point (%) ([1]; N-terminal tag Bio-Peg10-peg10-): 74.53% | Isocratic point (%) ([1]; N-terminal tag Bio-peg5-): 78.85% | Isocratic point (%) ([1]; N-terminal tag Bio-peg10-): 75.88% | Relative affinity (ratio of ELISA signal versus cy(LLFFF)) ([2]; ELISA 1, [MrkA] for ELISA N/A): 1.00 | Relative affinity (ratio of ELISA signal versus cy(LLFFF)) ([2]; ELISA 2, [MrkA] 25 nM): 1.00 | Relative affinity (ratio of ELISA signal versus cy(LLFFF)) ([2]; ELISA 3, [MrkA] 50 nM): 1.00 | Relative affinity (ratio of ELISA signal versus cy(LLFFF)) ([2]; ELISA 4, [MrkA] 100 nM): 1.00 | Relative affinity (ratio of ELISA signal versus cy(LLFFF)) ([2]; ELISA 5, [MrkA] 25 nM): 1.00 | Relative affinity (ratio of ELISA signal versus cy(LLFFF)) ([2]; ELISA 6, [MrkA] 25 nM): 1.00

CC(C)C[C@@H]1NC(=O)[C@@H](NC(=O)CCOCCOCCOCCOCCOCCOCCOCCOCCOCCOCCNC(=O)CCCC[C@@H]2SC[C@@H]3NC(=O)N[C@@H]32)Cc2cn(nn2)CCCC[C@@H](C(N)=O)NC(=O)[C@H](Cc2ccc(F)cc2)NC(=O)[C@H](Cc2ccccc2)NC(=O)[C@H](Cc2ccccc2)NC(=O)[C@H](CC(C)C)NC1=O [compound 11] ({Biotin-PEG10}-[Pra]LLFF[Phe(4-F)][Lys(N3)]-NH2; triazole 1-7)
Isocratic point (%) [1]: 75.53% | Relative affinity (ratio of ELISA signal versus cy(LLFFF)) ([2]; ELISA 3, [MrkA] 50 nM): 0.88
